In patent US20220411367A1, “ARYLMETHYLENE HETEROCYCLIC COMPOUNDS AS KV1.3 POTASSIUM SHAKER CHANNEL BLOCKERS” (D. E. Shaw Research, LLC, priority 2019, published 2022):

Key:
Kv1.3 potassium channel = biological target: T1, Kv1.3 potassium channel (Homo sapiens, UniProt P22001); assay: Kv1.3 potassium channel blocker activity, automated whole-cell patch clamp (Patchliner); type: cell-based; settings: CHO-K1 cells stably expressing Kv1.3; whole cell current inhibition; read-out: Kvl.3 IC50
T1 construct: expressed in transfected cells
T1 sequence (P22001 whole entry): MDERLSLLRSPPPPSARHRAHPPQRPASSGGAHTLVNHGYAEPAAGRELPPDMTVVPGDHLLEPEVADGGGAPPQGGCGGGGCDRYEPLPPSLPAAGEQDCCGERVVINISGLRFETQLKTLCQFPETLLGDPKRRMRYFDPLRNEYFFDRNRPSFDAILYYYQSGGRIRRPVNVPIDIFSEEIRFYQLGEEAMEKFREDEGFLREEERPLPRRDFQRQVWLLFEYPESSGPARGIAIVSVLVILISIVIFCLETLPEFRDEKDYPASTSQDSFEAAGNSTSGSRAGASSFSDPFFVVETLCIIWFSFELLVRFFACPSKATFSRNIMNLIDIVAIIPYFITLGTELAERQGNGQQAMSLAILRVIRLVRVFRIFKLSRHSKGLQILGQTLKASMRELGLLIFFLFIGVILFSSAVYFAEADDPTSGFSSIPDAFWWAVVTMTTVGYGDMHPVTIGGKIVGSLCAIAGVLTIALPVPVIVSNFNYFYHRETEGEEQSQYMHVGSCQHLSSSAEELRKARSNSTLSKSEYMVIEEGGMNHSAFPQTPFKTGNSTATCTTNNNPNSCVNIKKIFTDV
Method: This assay is used to evaluate the disclosed compounds' activities as Kv1.3 potassium channel blockers.
CHO-K1 cells stably expressing Kv1.3 were grown in DMEM containing 10% heat-inactivated FBS, 1 mM Sodium Pyruvate, 2 mM L-Glutamine and G418 (500 μg/ml).
(§1) All compounds were dissolved in DMSO at 30 mM.
The currents were evoked by applying 100 ms depolarizing pulses from −90 mV (holding potential) to +40 mV were applied with 0.1 Hz frequency. […] 10 second breaks were used between pulse trains (see Table A below).
Data were sampled at 10 kHz without filtering. Passive leak currents were subtracted online using a P/4 procedure (HEKA Elektronik Dr. Schulze GmbH). […] Total compound incubation time before the next pulse train was not longer than 10 seconds. Peak current inhibition was observed during compound equilibration.

hERG channel = biological target: T2, hERG channel (Homo sapiens, UniProt Q12809); assay: hERG electrophysiology, automated whole-cell patch clamp (Patchliner); type: cell-based; settings: CHO-K1 cells stably expressing hERG; whole cell current inhibition; read-out: hERG IC50
T2 construct: expressed in transfected cells
T2 sequence (Q12809 whole entry): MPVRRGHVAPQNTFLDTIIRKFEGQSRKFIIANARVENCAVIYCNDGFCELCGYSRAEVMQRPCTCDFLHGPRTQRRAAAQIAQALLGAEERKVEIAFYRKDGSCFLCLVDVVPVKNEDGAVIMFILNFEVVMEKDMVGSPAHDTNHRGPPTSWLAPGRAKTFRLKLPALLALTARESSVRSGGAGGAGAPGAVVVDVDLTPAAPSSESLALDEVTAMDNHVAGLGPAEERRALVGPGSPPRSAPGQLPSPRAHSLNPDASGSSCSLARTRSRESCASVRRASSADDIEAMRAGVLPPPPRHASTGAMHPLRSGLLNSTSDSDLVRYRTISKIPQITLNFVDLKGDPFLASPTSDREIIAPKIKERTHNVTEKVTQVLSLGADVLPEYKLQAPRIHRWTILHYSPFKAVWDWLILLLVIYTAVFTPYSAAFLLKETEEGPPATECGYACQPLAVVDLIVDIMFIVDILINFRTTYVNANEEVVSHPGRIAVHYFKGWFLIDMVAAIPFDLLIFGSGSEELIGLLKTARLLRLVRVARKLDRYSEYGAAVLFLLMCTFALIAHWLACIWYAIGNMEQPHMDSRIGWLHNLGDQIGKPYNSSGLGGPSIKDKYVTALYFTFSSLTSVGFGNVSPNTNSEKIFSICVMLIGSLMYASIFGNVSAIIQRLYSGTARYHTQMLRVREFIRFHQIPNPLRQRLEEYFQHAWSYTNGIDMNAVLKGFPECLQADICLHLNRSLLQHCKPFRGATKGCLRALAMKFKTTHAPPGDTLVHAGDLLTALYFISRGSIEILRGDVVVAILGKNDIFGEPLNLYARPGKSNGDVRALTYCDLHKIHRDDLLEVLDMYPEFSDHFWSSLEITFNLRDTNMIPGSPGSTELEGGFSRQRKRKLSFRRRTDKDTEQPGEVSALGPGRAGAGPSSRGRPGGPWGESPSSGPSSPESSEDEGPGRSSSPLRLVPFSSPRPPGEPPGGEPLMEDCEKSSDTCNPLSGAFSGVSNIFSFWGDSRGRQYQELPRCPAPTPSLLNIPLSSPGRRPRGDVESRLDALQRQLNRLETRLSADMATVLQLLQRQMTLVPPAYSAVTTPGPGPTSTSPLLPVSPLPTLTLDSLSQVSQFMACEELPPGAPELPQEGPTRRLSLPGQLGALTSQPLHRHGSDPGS
Method: as §1
The pulse frequency was 0.3 Hz.
Data were sampled at 10 kHz without filtering.

SMILES | IC50 (Kv1.3 potassium channel) [µM] | IC50 (hERG channel) [µM]
Cc1cc(O)c(CN2CCC(CO)CC2)cc1Cl [Compound 19, 4-chloro-2-[[4-(hydroxymethyl)piperidin-1-yl]methyl]-5-methylphenol] | < 1 | > 30
OCC1(c2ccccc2)CCN(Cc2cc(Cl)c(Cl)cc2O)CC1 [Compound 22, 4,5-dichloro-2-[[4-(hydroxymethyl)-4-phenylpiperidin-1-yl]methyl]phenol] | < 1 | < 30
OCC1CN(Cc2cc(Cl)c(Cl)cc2O)C1 [Compound 32, 4,5-dichloro-2-[[3-(hydroxymethyl)azetidin-1-yl]methyl]phenol] | < 10 | < 30
Cc1cc(O)c(CN2CCC(CO)CC2)cc1C [Compound 16, 2-[[4-(hydroxymethyl)piperidin-1-yl]methyl]-4,5-dimethylphenol] | < 10 | 
Oc1cc(Cl)c(Cl)cc1CN1CCC(C2CCOCC2)CC1 [Compound 20, 4,5-dichloro-2-[[4-(oxan-4-yl)piperidin-1-yl]methyl]phenol] | < 1 | < 30
NCC1(O)CCN(Cc2cc(Cl)c(Cl)cc2O)CC1 [Compound 9, 4-(aminomethyl)-1-[(4,5-dichloro-2-hydroxyphenyl)methyl]piperidin-4-ol trifluoroacetic acid] | < 1 | < 30
C=CC(=O)NCC1(CO)CCN(Cc2cc(Cl)c(Cl)cc2O)CC1 [Compound 7, N-([1-[(4,5-dichloro-2-hydroxyphenyl)methyl]-4-(hydroxymethyl)piperidin-4-yl]methyl)prop-2-enamide] | < 1 | 
NCC1(N)CCN(Cc2cc(Cl)c(Cl)cc2O)CC1 [Compound 3, 2-((4-amino-4-(aminomethyl)piperidin-1-yl)methyl)-4,5-dichlorophenol] | < 1 | < 30
OCC1CCN(C(CO)c2cc(Cl)c(Cl)cc2O)CC1 (stereo not drawn) [Compound 15, 4,5-dichloro-2-[2-hydroxy-1-[4-(hydroxymethyl)piperidin-1-yl]ethyl]phenol] | < 10 | 
O=C1CCOC12CCN(Cc1cc(Cl)c(Cl)cc1O)CC2 [Compound 33, 8-[(4,5-dichloro-2-hydroxyphenyl)methyl]-1-oxa-8-azaspiro[4.5]decan-4-one] | < 10 | 
CCC(c1cc(Cl)c(Cl)cc1O)N1CCC(CO)CC1 (stereo not drawn) [Compound 18, 4,5-dichloro-2-[1-[4-(hydroxymethyl)piperidin-1-yl]propyl]phenol] | < 10 | < 30
COC(=O)C1CC(CO)CCN1Cc1cc(Cl)c(Cl)cc1O (stereo not drawn) [Compound 1, methyl 1-[(4,5-dichloro-2-hydroxyphenyl)methyl]-4-(hydroxymethyl)piperidine-2-carboxylate] | < 10 | 
Cc1cc(CN2CCC(CO)CC2)c(O)cc1Cl [Compound 17, 5-chloro-2-[[4-(hydroxymethyl)piperidin-1-yl]methyl]-4-methylphenol] | < 10 | 
CC(=O)NCC1(O)CCN(Cc2cc(Cl)c(Cl)cc2O)CC1 [Compound 8, N-([1-[(4,5-dichloro-2-hydroxyphenyl)methyl]-4-hydroxypiperidin-4-yl]methyl)acetamide] | < 10 | 
NCC(c1cc(Cl)c(Cl)cc1O)N1CCC(CO)CC1 (stereo not drawn) [Compound 4, 2-[2-amino-1-[4-(hydroxymethyl)piperidin-1-yl]ethyl]-4,5-dichlorophenol] | < 10 | 
O=C(N1CCCC1)C1(CO)CCN(Cc2cc(Cl)c(Cl)cc2O)CC1 [Compound 6, 4,5-dichloro-2-[[4-(hydroxymethyl)-4-[(pyrrolidin-1-yl)carbonyl]piperidin-1-yl]methyl]phenol] | < 10 | 
OC[C@@H]1CCN(Cc2cc(Cl)c(Cl)cc2O)[C@@H](c2ccccc2)C1 (relative stereo) [Compound 11, 4,5-dichloro-2-(((2R,4R)-rel-4-(hydroxymethyl)-2-phenylpiperidin-1-yl)methyl)phenol] | < 10 | 
OCC1CCN(Cc2cc(Cl)c(Cl)cc2O)C(CO)C1 (stereo not drawn) [Compound 2, (1-(4,5-dichloro-2-hydroxybenzyl)piperidine-2,4-diyl)dimethanol] | < 10 | 
OC[C@@H]1[C@H]2CN(Cc3cc(Cl)c(Cl)cc3O)C[C@@H]12 [Compound 36, 4,5-dichloro-2-(((1R,5S,6R)-6-(hydroxymethyl)-3-azabicyclo[3.1.0]hexan-3-yl)methyl)phenol] | < 10 | 
CC(C)CC(c1cc(Cl)c(Cl)cc1O)N1CCC(CO)CC1 (stereo not drawn) [Compound 23, 4,5-dichloro-2-[1-[4-(hydroxymethyl)piperidin-1-yl]-3-methylbutyl]phenol] | < 10 | 
OC[C@@H]1CCN(Cc2cc(Cl)c(Cl)cc2O)[C@H](c2ccccc2)C1 (relative stereo) [Compound 10, 4,5-dichloro-2-(((2S,4R)-rel-4-(hydroxymethyl)-2-phenylpiperidin-1-yl)methyl)phenol] | < 10 | 
OCC1(F)CCN(Cc2cc(Cl)c(Cl)cc2O)CC1 [Compound 31, 4,5-dichloro-2-[[4-fluoro-4-(hydroxymethyl)piperidin-l-yl]methyl]phenol] | < 10 | 
O=C(O)CC1CCN(Cc2cc(Cl)c(Cl)cc2O)CC1 [Compound 28, 2-(1-(4,5-dichloro-2-hydroxybenzyl)piperidin-4-yl)acetic acid] | < 10 | 
C[C@@H]1C[C@@H](CO)CCN1Cc1cc(Cl)c(Cl)cc1O (relative stereo) [Compound 24, 4,5-dichloro-2-(((2R,4S)-rel-4-(hydroxymethyl)-2-methylpiperidin-1-yl)methyl)phenol] | < 10 | 
O=C(NCC1(CO)CCN(Cc2cc(Cl)c(Cl)cc2O)CC1)C(F)(F)F [Compound 13, N-([1-[(4,5-dichloro-2-hydroxyphenyl)methyl]-4-(hydroxymethyl)piperidin-4-yl]methyl)-2,2,2-trifluoroacetamide] | < 1 | 

The next lines start with results.

IC50 (Kv1.3 potassium channel) [µM] | SMILES | IC50 (hERG channel) [µM]
< 10 | CN(C)C(=O)C1CCN(Cc2cc(Cl)c(Cl)cc2O)CC1 [Compound 66, 1-(4,5-dichloro-2-hydroxybenzyl)-N,N-dimethylpiperidine-4-carboxamide] | < 30
< 10 | N#CC1(CO)CCN(Cc2cc(Cl)c(Cl)cc2O)CC1 [Compound 54, 1-[(4,5-dichloro-2-hydroxyphenyl)methyl]-4-(hydroxymethyl)piperidine-4-carbonitrile] | < 30
< 10 | CS(=O)(=O)C1CCN(Cc2cc(Cl)c(Cl)cc2O)CC1 [Compound 41, 4,5-dichloro-2-((4-(methylsulfonyl)piperidin-1-yl)methyl)phenol] | 
< 10 | O=C1CCC2(CCN1)CCN(Cc1cc(Cl)c(Cl)cc1O)CC2 [Compound 59, 3-(4,5-dichloro-2-hydroxybenzyl)-3,9-diazaspiro[5.6]dodecan-10-one] | 
< 10 | CC1CCN(Cc2cc(Cl)c(Cl)cc2O)CC1 [Compound 64, 4,5-dichloro-2-((4-methylpiperidin-1-yl)methyl)phenol] | < 30
< 10 | OCC1CCCCN1Cc1cc(Cl)c(Cl)cc1O (stereo not drawn) [Compound 34, 4,5-dichloro-2-[[2-(hydroxymethyl)piperidin-1-yl]methyl]phenol] | 
< 10 | CC(=O)N1CCN(Cc2cc(Cl)c(Cl)cc2O)CC1 [Compound 49, 1-[4-[(4,5-dichloro-2-hydroxyphenyl)methyl]piperazin-1-yl]ethan-1-one] | < 30
< 10 | NC(=O)C1CCN(Cc2cc(Cl)c(Cl)cc2O)CC1 [Compound 62, l-(4,5-dichloro-2-hydroxybenzyl) piperidine-4-carboxamide] | < 30
< 10 | CC(C)(O)C1CCN(Cc2cc(Cl)c(Cl)cc2O)CC1 [Compound 50, 4,5-dichloro-2-[[4-(2-hydroxypropan-2-yl)piperidin-1-yl]methyl]phenol] | < 30
< 10 | CC(c1cc(Cl)c(Cl)cc1O)N1CCC(CO)CC1 (stereo not drawn) [Compound 46, 4,5-dichloro-2-[1-[4-(hydroxymethyl)piperidin-1-yl]ethyl]phenol] | 
< 10 | Oc1cc(Cl)c(Cl)cc1CN1CCC(O)CC1 [Compound 55, 1-[(4,5-dichloro-2-hydroxyphenyl)methyl] piperidin-4-ol] | < 30
< 1 | NCC1CCN(Cc2cc(Cl)c(Cl)cc2O)CC1 [Compound 61, 2-((4-(aminomethyl)piperidin-1-yl)methyl)-4,5-dichlorophenol] | < 30
< 10 | Oc1cc(Cl)c(Cl)cc1CN1CCC(O)(O)CC1 [Compound 37, 1-(4,5-dichloro-2-hydroxybenzyl)piperidine-4,4-diol trifluoroacetic acid] | 
< 10 | Oc1cc(Cl)c(Cl)cc1CN1CCC2(CC1)OCCO2 [Compound 35, 4,5-dichloro-2-[1,4-dioxa-8-azaspiro[4.5]decan-8-ylmethyl]phenol trifluoroacetic acid] | 
< 10 | OCC1CN(Cc2cc(Cl)c(Cl)cc2O)CCN1 (stereo not drawn) [Compound 47, 4,5-dichloro-2-((3-(hydroxymethyl)piperazin-1-yl)methyl)phenol] | 
< 10 | Oc1cc(Cl)c(Cl)cc1CN1CCC(n2cnnc2)CC1 [Compound 38, 4,5-dichloro-2-[[4-(4H-1,2,4-triazol-4-yl)piperidin-1-yl]methyl]phenol] | 
< 10 | Oc1cc(Cl)c(Cl)cc1CN1CCn2cnnc2C1 [Compound 43, 4,5-dichloro-2-[5H,6H,7H,8H-[1,2,4]triazolo[4,3-a]pyrazin-7-ylmethyl]phenol] | 
